Assay results from US20160310505A1, “PROSTAMIDES FOR ENHANCEMENT OF LEPTIN PRODUCTION” (Allergan, Inc., priority 2013, published 2016).
Entries after “also recorded” stand apart in the source; their conditions may differ.

What was measured:
pre-adipocyte = assay: Pre-adipocyte differentiation; type: cell-based
Leptin = assay: Serum leptin levels by luminex assay in male rats on a cafeteria diet; type: in vivo
Procedure: In FIG. 1, bimatoprost was applied topically once per day for 6 months to rats. […] FIG. 2 describes the systemic exposure (topically applied) of bimatoprost by measuring blood levels of the compound after treatment. […] The in vivo action of bimatoprost is likely a dual mechanism to inhibit food intake and suppress replenishment of fat cells during normal turnover. […] Blood was drawn every 2 weeks and the serum was analyzed for leptin levels by luminex assay. […] A cafeteria diet is a high sugar and fat diet with typical “junk food”: […]

[1] = Cafeteria diet induced fatty liver in rats, liver histology; type: in vivo; details: cafeteria diet 10 weeks
Source text: Rats were fed the cafeteria diet for 10 weeks and administered bimatoprost daily. At the end of 10 weeks, livers were resected and examined by histology. […] This has important consequences in the potential treatment of non-alcoholic fatty liver disease (NAFLD).

human pre-adipocytes = assay: Leptin production in human pre-adipocytes; type: cell-based; details: 1 μM, 8 days, vehicle DMSO
Procedure: Vehicle is DMSO, bimatoprost treatment at 1 μM. Stimulation of leptin over 8-days of bimatoprost treatment; In FIG. 1, bimatoprost was applied topically once per day for 6 months to rats. […] FIG. 2 describes the systemic exposure (topically applied) of bimatoprost by measuring blood levels of the compound after treatment. […] The in vivo action of bimatoprost is likely a dual mechanism to inhibit food intake and suppress replenishment of fat cells during normal turnover. […] Blood was drawn every 2 weeks and the serum was analyzed for leptin levels by luminex assay. […] A cafeteria diet is a high sugar and fat diet with typical “junk food”: […]

[2] = Patient use examples (transdermal patch or topical gel); type: in vivo, human
Source text: A person who is morbidly obese applies a bimatoprost transdermal skin patch on their arm, which uniformly releases a 5% w/w bimatoprost formulation over a thirty day period. […] The patient loses 6 pounds more than they would have otherwise lost without using the bimatoprost transdermal skin patch. A person applies a 3% w/w bimatoprost gel to their skin once a day. […] A person with elevated blood pressure has been determined by doctors to have prediabetes. In addition to being on a low fat, low sugar diet, the patient uses a transdermal bimatoprost patch which releases a 3% w/w bimatoprost formulation through the dermis and into the blood stream. […] A person is diagnosed with non-alcoholic fatty liver. The patient applies a transdermal bimatoprost patch which releases a 2% w/w bimatoprost formulation. […] A healthy person in an effort to lose weight is on a low fat diet. In order to suppress their appetite, the person applies a bimatoprost transdermal patch which continually releases 1% w/w bimatoprost for 30 days.

[3] = Once a day topical application to rats for six months (subcutaneous fat, body weight); type: in vivo; details: for subcutaneous fat: topical once a day, six months, ~10% body surface coverage; for body weight (FIG. 2): topical treatment
Source text: Bimatoprost (AGN 192024) is a synthetic prostamide which has been used in intraocular pressure lowering therapeutics such as LUMIGAN® 0.03, LUMIGAN® 0.01 and GANFORT®. […] In FIG. 1, bimatoprost was applied topically once per day for 6 months to rats. […] FIG. 2 describes the systemic exposure (topically applied) of bimatoprost by measuring blood levels of the compound after treatment. […] The in vivo action of bimatoprost is likely a dual mechanism to inhibit food intake and suppress replenishment of fat cells during normal turnover. […] Blood was drawn every 2 weeks and the serum was analyzed for leptin levels by luminex assay. […] A cafeteria diet is a high sugar and fat diet with typical “junk food”: […]

[4] = Example 1: transdermal skin patch, 5% w/w, thirty days
[5] = Example 3: prediabetes patient, transdermal patch, 3% w/w
[6] = Example 5: transdermal patch, 1% w/w, 30 days

## CCNC(=O)CCC/C=C\C[C@@H]1[C@@H](/C=C/[C@@H](O)CCc2ccccc2)[C@H](O)C[C@@H]1O [bimatoprost, Bimatoprost]
pre-adipocyte
  differentiation of pre-adipocytes: inhibit differentiation
Leptin; male rats on cafeteria diet, 0.3% bimatoprost in BSHG formulation topical daily, p<0.01, 2-way ANOVA
  serum leptin levels: elevated levels of Leptin
Leptin; rats on a cafeteria diet, topical daily
  leptin levels (FIG. 4): elevated leptin levels
[1]; 0.3% bimatoprost formulation daily
  liver lipidosis: reduced lipidosis as compared to the control
[1]; 1% bimatoprost formulation daily
  liver lipidosis: reduced lipidosis as compared to the control
[1]; topical daily
  cafeteria diet induced fatty liver changes (FIG. 5): dose-dependently decreases cafeteria diet induced fatty liver changes; also recorded: inhibited cafeteria diet induced fatty liver disease
Human pre-adipocytes
  leptin production (FIG. 3): increases Leptin production; also recorded: increase in leptin production
[2]; Example 1: morbidly obese person, transdermal skin patch, 5% w/w, thirty days
  leptin levels: leptin levels increase
[2]; [4]
  additional weight lost versus no patch: 6 pounds
  appetite: suppressed appetite
[2]; Example 2: 3% w/w gel on skin once a day, after several days
  leptin levels: elevated leptin levels
[2]; Example 2: 3% w/w gel once a day
  appetite: suppresses appetite
[2]; Example 2: 3% w/w gel once a day, sixty day period
  body weight: maintains their weight
[2]; [5]
  appetite: reduction in appetite
  blood leptin levels: immediate increase in blood leptin levels
  body weight: weight loss
[2]; Example 4: non-alcoholic fatty liver patient, transdermal patch, 2% w/w
  lipidosis in the liver: reduction in lipidosis in the liver
[2]; Example 5: healthy female on low fat diet, transdermal patch, 1% w/w, 30 days
  leptin levels: leptin levels rise
[2]; [6]
  appetite: suppression of their appetite
  body weight: greater weight loss
[3]; 3% w/v bimatoprost vs vehicle
  subcutaneous fat at sites distal to the application site (FIG. 1): subcutaneous fat reduction at sites distal to the application site
[3]
  subcutaneous fat: substantial local subcutaneous fat reduction, as well as reduction at adjunct and distal sites
  body weight (FIG. 2): reduction in body weight
[3]; listed as Bimatoprost
  subcutaneous fat: subcutaneous fat loss at sites distant from the application site
  body weight (FIG. 2): reduction in weight over time
